Entries after “also recorded” stand apart in the source; their conditions may differ. Read-outs that look alike come from different tables or passages of the source.
Legend:
[1] = test system: uptake of ³[H]-uridine by the cells; test: Uptake of 3[H]-uridine by the cells; assay type: cell-based
[2] = test system: antiviral state induced by human β interferon; test: cells; assay type: cell-based; details: Fibroblast, 6 h, read-out: % inhibition of antiviral state induced by: human β interferon
[3] = test system: antiviral state induced by human α interferon; test: cells; assay type: cell-based; details: for inhibited the action of interferon: summary of Table 3, concentrations and serum as in Table 3
interferon receptors = biological target: T1, interferon receptors (Homo sapiens, UniProt P17181+P48551); test: Binding of 125I-labelled human alpha interferon to human fibroblasts (Scatchard plot), Example 3; details: for down regulating the interferon receptors: Figures 4 and 5
T1 construct: endogenous in cells; host or cells: human fibroblasts
T1 sequence (P17181 28-557): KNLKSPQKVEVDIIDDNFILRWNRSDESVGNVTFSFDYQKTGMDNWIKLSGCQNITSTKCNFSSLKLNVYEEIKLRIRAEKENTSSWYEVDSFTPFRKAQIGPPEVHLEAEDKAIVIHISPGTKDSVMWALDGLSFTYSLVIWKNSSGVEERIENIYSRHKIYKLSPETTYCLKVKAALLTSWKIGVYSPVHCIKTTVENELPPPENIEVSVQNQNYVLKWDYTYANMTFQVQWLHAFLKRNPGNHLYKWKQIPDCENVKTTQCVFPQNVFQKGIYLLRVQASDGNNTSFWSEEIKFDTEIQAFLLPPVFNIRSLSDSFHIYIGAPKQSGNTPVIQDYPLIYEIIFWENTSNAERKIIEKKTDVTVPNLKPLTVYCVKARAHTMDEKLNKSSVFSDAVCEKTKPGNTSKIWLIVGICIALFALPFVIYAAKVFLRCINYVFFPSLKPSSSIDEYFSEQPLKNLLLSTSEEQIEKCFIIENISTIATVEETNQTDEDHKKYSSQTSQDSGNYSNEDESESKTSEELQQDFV
T1 sequence (P48551 27-515): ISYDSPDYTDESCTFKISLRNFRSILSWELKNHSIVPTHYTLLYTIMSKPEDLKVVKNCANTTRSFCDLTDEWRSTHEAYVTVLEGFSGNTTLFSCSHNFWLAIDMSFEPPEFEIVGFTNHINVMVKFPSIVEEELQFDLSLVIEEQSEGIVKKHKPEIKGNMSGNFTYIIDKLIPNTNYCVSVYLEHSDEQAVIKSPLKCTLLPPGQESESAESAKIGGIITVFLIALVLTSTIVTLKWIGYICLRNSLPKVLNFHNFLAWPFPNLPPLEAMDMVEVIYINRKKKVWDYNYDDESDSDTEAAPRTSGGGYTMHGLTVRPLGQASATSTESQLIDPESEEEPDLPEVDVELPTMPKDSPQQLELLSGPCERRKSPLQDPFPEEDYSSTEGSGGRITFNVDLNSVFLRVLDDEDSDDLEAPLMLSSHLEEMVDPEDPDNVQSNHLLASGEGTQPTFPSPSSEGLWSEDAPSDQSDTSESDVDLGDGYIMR
Procedure: The binding of interferons to human cells was analysed with human alpha interferon labelled with radioactive iodine. The ¹²⁵I-labelled human alpha interferon was assayed for biological activity as well as analysed by sodium dodecyl sulphate (SDS)-polyacrylamide gel electrophoresis before use to ensure that the labelled ligand was not degraded and biologically active. The labelled ligand was then used in binding studies with human fibroblasts as previously described (Thompson et al., Branca and Baglioni; and Epstein et al.). The results of this study are expressed as a Scatchard plot of the binding data in Figures 3 to 6. The cells were washed twice with growth medium to remove most of the fatty acid before they were used to measure the binding of ¹²⁵I-human alpha interferon to their receptors. B and F are concentration of bound and free ¹²⁵I-human alpha interferon respectively.

[4] = test system: total cellular protein synthesis; test: Total cellular protein synthesis; assay type: cell-based
[5] = test system: antiviral state induced by human γ interferon; test: cells; assay type: cell-based; details: Fibroblast, 6 h, read-out: % inhibition of antiviral state induced by: human γ interferon
[6] = test system: induction of antiviral state by mouse interferon in mouse A9 cells; assay type: cell-based; details: 50 µM
[7] = test system: induction of antiviral state by mouse interferon in mouse L cells; assay type: cell-based; details: 50 µM
[8] = test system: induction of antiviral state by human α interferon in human fibroblasts; assay type: cell-based
interferon activity = details: Sarkar and Gupta; cited from earlier work
[9] = test system: human alpha interferon-induced antiviral state; test: Kinetics of the inhibition of the interferon-induced antiviral state in human fibroblasts, Example 2; assay type: cell-based
Procedure: Human fibroblasts grown in 96 well Micro-test II plates were incubated with growth medium containing 1% fetal calf serum and 50µM arachidonic acid for up to 6 hours. The cells were then assayed for the inhibition of the human alpha interferon-induced antiviral state.
Also, human fibroblasts in 96 well Micro-test II plates were incubated with growth medium containing 1% fetal calf serum and 50µM arachidonic acid for 6 hours.

[10] = test system: total protein and RNA synthesis in the cells; details: at concentrations exceeding 1000µM; Sarkar and Gupta; cited from earlier work
[11] = Homo sapiens, Fibroblast, 6 h, read-out: % inhibition of antiviral state induced by: human α interferon, 50µM compound, 1% fetal calf serum, 6 hours
[12] = Homo sapiens, Fibroblast, read-out: % inhibition of the antiviral state induced by human α interferon, Table 4: 50 µM compound, 1% fetal calf serum
[13] = Homo sapiens, Fibroblast, read-out: % inhibition of the antiviral state induced by human α interferon, Table 4: 50 µM compound, 10% fetal calf serum
[14] = Homo sapiens, Fibroblast, 6 h, read-out: % inhibition of antiviral state induced by: human α interferon, 50µM compound, 10% fetal calf serum, 6 hours

CCCCCC#CCC#CCC#CCC#CCCCC(=O)O
inhibition of the uptake of ³[H]-uridine by the cells [1]: partially inhibited | inhibition at 50 µM [2]: ≥ 90% | inhibition at 50 µM [3, 11]: ≥ 90% | inhibition at 50 µM [3, 12]: ≥ 90% | inhibition at 50 µM [3, 13]: 0% | inhibition at 200 µM ([3]; Homo sapiens, Fibroblast, read-out: % inhibition of the antiviral state induced by human α interferon, Table 4: 200 µM compound, 10% fetal calf serum): ≥ 90% | inhibition at 200 µM ([3]; Homo sapiens, Fibroblast, read-out: inhibit the interferon-induced antiviral state, 200µM, 10% fetal calf serum): ≥ 90% | inhibited the action of interferon [3]: ≥ 90% | down regulating the interferon receptors (interferon receptors): 30-60% | inhibition of total cellular protein synthesis [4]: did not inhibit | inhibition at 50 µM [5]: ≥ 80%

CC(=O)N1CCN(c2ccc(OC[C@H]3CO[C@](Cn4ccnc4)(c4ccc(Cl)cc4Cl)O3)cc2)CC1 (relative stereo) [Ketoconazole, cis-1-acetyl-4-{4-[2-(2,4-dichlorophenyl)-2-imidazol-1-ylmethyl-1,3-dioxolan-4-ylmethoxy]phenyl}-piperazine, reference compound]
inhibition at 100 µM [2]: ≥ 90% | inhibition at 100 µM ([3]; Homo sapiens, Fibroblast, 6 h, read-out: % inhibition of antiviral state induced by: human α interferon, 100µM compound, 10% fetal calf serum, 6 hours): ≥ 90% | inhibited the action of interferon [3]: ≥ 90% | inhibition of total cellular protein synthesis [4]: did not inhibit

CCCCCCCCC#CCC#CCC#CCCCC(=O)O [5,8,11,-eicosatriynoic acid, 5,8,11-eicosatriynoic acid]
inhibition at 50 µM [3, 11]: ≥ 90% | inhibited the action of interferon [3]: ≥ 90%

COc1ccc2c(c1)c(CC(=O)O)c(C)n2C(=O)c1ccc(Cl)cc1 [Indomethacin]
% inhibition in mouse A9 cells [6]: not measurable | % inhibition in mouse L cells [7]: not measurable | % inhibition in human fibroblasts ([8]; 50 µM): not measurable | % inhibition in human fibroblasts ([8]; 300 µM): could not measure any inhibitory effect; also recorded: not measurable | concentration at which interferon activity could be suppressed (interferon activity): exceeding 1000 µM

CC(Cc1ccc(O)c(O)c1)C(C)Cc1ccc(O)c(O)c1 (stereo not drawn) [Nordihydroguaiaretic acid, 4,4′-(2,3-dimethyltetramethylene)bis(benzene-1,2-diol)]
inhibition at 50 µM [2]: ≥ 90% | inhibition at 50 µM [3, 14]: ≥ 90% | inhibited the action of interferon [3]: ≥ 90% | down regulation of the interferon receptors (interferon receptors; 10% fetal calf serum (Figure 6)): does not seem to significantly down regulate

CCCCC1C(=O)N(c2ccccc2)N(c2ccc(O)cc2)C1=O (stereo not drawn) [Oxyphenylbutazone]
% inhibition in mouse L cells [7]: could not measure any inhibitory effect; also recorded: not measurable | % inhibition in human fibroblasts ([8]; 50 µM): could not measure any inhibitory effect; also recorded: not measurable

O=c1c(O)c(-c2ccc(O)c(O)c2)oc2cc(O)cc(O)c12 [Quercetin]
inhibition at 50 µM [3, 14]: 90% | inhibited the action of interferon [3]: ≥ 90%

CCCCCC=CCC=CCC=CCC=CCCCC(=O)O [arachidonic acid, 5,8,11,14-eicosatetraenoic acid]
inhibition of the uptake of ³[H]-uridine by the cells [1]: partially inhibited | reversibility of the inhibition after removal of compound ([9]; 50µM for 6 hours, washed, reincubated 0.5, 1, 2 or 24 hours, 1% fetal calf serum (Figure 2)): reversible with time | onset of inhibition of the interferon-induced antiviral state ([9]; 50µM, 1% fetal calf serum, incubation up to 6 hours (Figure 1)): within minutes | inhibition at 50 µM [2]: ≥ 90% | inhibition at 50 µM [3, 11]: ≥ 90% | inhibition at 50 µM [3, 12]: ≥ 90% | inhibition at 50 µM [3, 13]: 0% | inhibition at 300 µM ([3]; Homo sapiens, Fibroblast, read-out: % inhibition of the antiviral state induced by human α interferon, Table 4: 300 µM compound, 10% fetal calf serum): ≥ 90% | inhibited the action of interferon [3]: ≥ 90% | down regulating the interferon receptors (interferon receptors): 30-60% | inhibition of total cellular protein synthesis [4]: did not inhibit | inhibition at 50 µM [5]: ≥ 80%

CC(C)Cc1ccc(C(C)C(=O)O)cc1 (stereo not drawn) [ibuprofen]
effect on total protein and RNA synthesis in the cells [10]: began to inhibit total protein and RNA synthesis | concentration at which interferon activity could be suppressed (interferon activity): exceeding 1000 µM

CCCCC/C=C\C/C=C\C/C=C\C/C=C\CCCC(=O)O [sodium arachidonate]
inhibition at 300 µM ([3]; Homo sapiens, Fibroblast, read-out: inhibit the interferon-induced antiviral state, 300µM, 10% fetal calf serum): ≥ 90%
